Test results reported in PMC12569736 (Journal of Cosmetic Dermatology, 2025).
Values belong to the compound of their own block, whether it stands above or below them.

What was measured:
human tyrosinase (hTYR) = target: T1, human tyrosinase (hTYR) (Homo sapiens, UniProt P14679); test: L‐DOPA oxidation assay for tyrosinase activity (MNT‐1 cell lysate); format: biochemical; details: for inhibitory effect on hTYR at maximum tested concentration: up to 33.3 μM; for IC50: MNT‐1 lysate, L‐DOPA 4 mM, pH 6.9, read-out: IC50 against hTYR; for inhibition at 0.4 µM: read-out: inhibitory activity against hTYR compared to the control
T1 construct: tyrosinase enzyme solution derived from MNT‐1 cells; endogenous in cells; host or cells: MNT-1 human melanoma cell line (crude lysate supernatant)
T1 sequence (P14679 19-529): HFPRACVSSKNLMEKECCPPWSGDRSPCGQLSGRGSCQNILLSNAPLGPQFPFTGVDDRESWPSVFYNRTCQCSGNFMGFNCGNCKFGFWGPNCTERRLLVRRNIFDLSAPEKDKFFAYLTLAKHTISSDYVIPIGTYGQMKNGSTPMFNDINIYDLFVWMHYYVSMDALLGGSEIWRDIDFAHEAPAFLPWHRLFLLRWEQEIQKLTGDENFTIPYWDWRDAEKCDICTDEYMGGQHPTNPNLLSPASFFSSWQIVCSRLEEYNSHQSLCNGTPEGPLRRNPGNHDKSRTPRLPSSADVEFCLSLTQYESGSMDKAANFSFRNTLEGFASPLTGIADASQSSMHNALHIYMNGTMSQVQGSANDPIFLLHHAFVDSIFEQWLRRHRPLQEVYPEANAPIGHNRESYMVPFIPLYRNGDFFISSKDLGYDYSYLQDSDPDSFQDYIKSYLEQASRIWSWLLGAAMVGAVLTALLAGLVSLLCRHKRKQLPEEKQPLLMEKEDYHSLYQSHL
Method: The hTYR‐mediated L‐DOPA oxidation assay was performed according to Winder and Harris. MNT‐1 cells were resuspended in 0.05 M sodium phosphate buffer (pH 6.9) and sonicated for 1 min. After incubation on ice for 3–5 min, the mixture underwent a second sonication. The lysate was centrifuged at 13 000 rpm for 15 min at 4°C, and the supernatant was collected and kept on ice.
For the assay, 20 μL of crude enzyme solution and 80 μL sodium phosphate buffer were added to a 96‐well plate and centrifuged at 1000 rpm for 30 s. Subsequently, 2 μL of different concentrations of test compounds were added to each well, followed by centrifugation at 1000 rpm for 30 s. Finally, 100 μL L‐DOPA (final concentration 4 mM) was added to initiate the reaction. The microplate reader (Synergy H1 Hybrid Reader, BioTek) was used to monitor the reaction at 26°C, measuring absorbance at 475 nm every minute for 60 min. IC50 values were calculated using GraphPad software based on Vmax values from the kinetic curves.
The L‐DOPA tyrosinase assay was performed using a tyrosinase enzyme solution derived from MNT‐1 cells in 50 mM sodium phosphate buffer (pH 6.9), with a substrate (L‐DOPA) concentration of 4 mM and various concentrations of inhibitors as indicated. Data represent mean ± standard deviation of three independent experiments.

hTYR enzyme = target: hTYR enzyme; parameters: method as in PMID 29427586; details: purified hTYR; read-out: IC50 against the hTYR enzyme; cited from earlier work
MelanoDerm skin model = tested on: MelanoDerm skin model; parameters: method as in PMID 29427586; details: cited from earlier work
MNT‐1 cells = test: Melanin content in MNT‐1 cells after 6 days of treatment; format: cell-based, human; details: for inhibition of melanin production: 0.37 μM; for inhibition of melanin production / inhibition at 1.1 µM / inhibition at 3.3 µM / inhibition at 10 µM: 6 days; for IC50 / inhibition at 1.1 µM / inhibition at 3.3 µM / inhibition at 10 µM: Homo sapiens; for IC50: 144 h, MNT‐1, 6 days, read-out: IC50 of melanin production; for inhibition at 1.1 µM / inhibition at 3.3 µM / inhibition at 10 µM: MNT-1, 144 h, read-out: inhibition of melanin production
Method: MNT‐1 cells were exposed to varying concentrations of test compounds for 6 days. After treatment, cells were harvested and lysed in RIPA buffer on ice for 20 min. Lysates were centrifuged at 13 000 rpm for 10 min at 4°C, and the supernatant was collected. Protein concentration was quantified using a BCA Protein Assay Kit (Thermo Fisher). To extract melanin, cell pellets were dissolved in 1 M NaOH and incubated for 3 h at 80°C. Absorbance at 405 nm was measured using a Synergy H1 Hybrid Reader. Melanin content was quantified by referencing a standard curve of synthetic melanin (maximum concentration 50 μg/mL, 2‐fold gradient dilution, 8 concentration points). Melanin content was normalized to protein concentration (μg melanin/mg protein), and IC50 values were calculated using GraphPad software.
FIGURE 3 Inhibition of melanin production in MNT‐1 by KT‐939, Thiamidol, and 4‐butylresorcinol. MNT‐1 cells were treated with different concentrations of KT‐939, Thiamidol, or 4‐butylresorcinol for 6 days. The melanin content was quantified based on the standard curve of melanin, and the melanin content per mg of protein was utilized for IC50 calculations with GraphPad software.

melasma = tested on: melasma; parameters: method as in PMID 34676600; details: moderate‐to‐severe melasma, 24 weeks of application, cited from earlier work
[1] = tested on: NRF2/ARE signaling pathway; test: NRF2/ARE‐luciferase reporter assay in HEK293T cells; format: cell-based, human; details: 10 µM, 48 h, relative to DMSO
Method: The NRF2‐responsive firefly luciferase reporter plasmid (pGL4.27_ARE NRF2‐SPE) and Renilla luciferase control plasmid (pRL‐TK) were co‐transfected into HEK293T cells using Lipofectamine 2000. After 24 h, transfected cells were seeded into 96‐well plates and incubated overnight. Test compounds (10 μM) were added, and cells were incubated for an additional 48 h. Luciferase activities were measured using the Dual‐Lumi Luciferase Reporter Assay Kit (Beyotime Biotechnology), following the manufacturer's instructions.
FIGURE 6 KT‐939 activates the ARE/NRF2 signaling pathway. HEK293T cells transfected with an NRF2‐responsive firefly luciferase reporter were treated with 10 µM of KT‐939, hydroquinone (Hq), 377, or 4‐butylresorcinol for 48 h. Luminescence signals were normalized to renilla and expressed relative to DMSO control. *** p < 0.001 vs DMSO.

IC50 (human tyrosinase (hTYR)): 0.33 µM | inhibition at 0.4 µM (human tyrosinase (hTYR); at 0.4 μM): 53.5% | IC50 (MNT‐1 cells): 1.3 µM
SMILES: CC(C)C(=O)Nc1nc(-c2ccc(O)cc2O)cs1 [Thiamidol, isobutylamido thiazolyl resorcinol]
IC50 (hTYR enzyme): 1.1 µM | IC50 (MelanoDerm skin model): 0.9 µM | inhibition of melanin production (MNT‐1 cells): neither Thiamidol nor 4‐butylresorcinol showed inhibitory activity | inhibition at 1.1 µM (MNT‐1 cells): 27.2% | inhibition at 3.3 µM (MNT‐1 cells): 62.2% | inhibition at 10 µM (MNT‐1 cells): 76.5% | tolerability (melasma): favorable tolerability | melasma severity compared to baseline and vehicle (melasma; Fitzpatrick phototypes III–V): significantly reduced melasma severity

IC50 (human tyrosinase (hTYR)): 21.3 µM | inhibitory activity against hTYR compared to the control (human tyrosinase (hTYR); at 0.4 μM): 2.7%
SMILES: CC(c1ccccc1)c1ccc(O)cc1O (centres unmarked) [compound 377, phenethyl resorcinol]
NRF2 signaling pathway activation (luciferase reporter) [1]: no effect on NRF2 activation

IC50 (human tyrosinase (hTYR)): 7.09 µM | inhibition at 0.4 µM (human tyrosinase (hTYR); at 0.4 μM): 9.7% | IC50 (MNT‐1 cells): 8 µM
SMILES: CCCCc1ccc(O)cc1O [4‐butylresorcinol]
NRF2 signaling pathway activation (luciferase reporter) [1]: no effect on NRF2 activation | inhibition of melanin production (MNT‐1 cells): neither Thiamidol nor 4‐butylresorcinol showed inhibitory activity | inhibition at 1.1 µM (MNT‐1 cells): 15.8% | inhibition at 3.3 µM (MNT‐1 cells): 32.6% | inhibition at 10 µM (MNT‐1 cells): 48.4%

The remaining lines, values behind:

SMILES: OC[C@H]1O[C@@H](Oc2ccc(O)cc2)[C@H](O)[C@@H](O)[C@@H]1O [arbutin]
inhibitory effect on hTYR at maximum tested concentration (human tyrosinase (hTYR)): no significant inhibitory effects

SMILES: Oc1ccc(/C=C/c2cc(O)cc(O)c2)cc1 [resveratrol]
IC50 (human tyrosinase (hTYR)): 6.04 µM | inhibition at 0.4 µM (human tyrosinase (hTYR); at 0.4 μM): 13.4%

SMILES: NC(=O)c1cccnc1 [nicotinamide]
inhibitory effect on hTYR at maximum tested concentration (human tyrosinase (hTYR)): no significant inhibitory effects

SMILES: CC1(C)C=Cc2c(ccc3c2OC[C@@H](c2ccc(O)cc2O)C3)O1 [glabridin]
inhibitory effect on hTYR at maximum tested concentration (human tyrosinase (hTYR)): no significant inhibitory effects

SMILES: Oc1ccc(O)cc1 [hydroquinone]
NRF2 signaling pathway activation (luciferase reporter) [1]: no effect on NRF2 activation | inhibitory effect on hTYR at maximum tested concentration (human tyrosinase (hTYR)): no significant inhibitory effects
